Source: US8097585B2, “Methods of treating inflammation by administration of heme oxygenase-1 and products of heme degradation” (priority 2002, dated 2012)

Columns and labels:
DSS-colitis = DSS-colitis (acute colitis) mouse model: weight loss, DAI, symptoms, crypt score; type: in vivo, C57BL/6 mice
Source text: Animals. Pathogen-free male C57BL/6 mice, 4-6 weeks of age (Taconic; C57BL/6×129 svj strain) were used in this example. Mice were kept for one week at 4 mice/cage and fed normal laboratory chow and drinking water ad libitum prior to the experiments. All mice weighed between 22.5 g and 27.7 g at the beginning of the trial. The animal experimentation protocol was reviewed and approved by the Animal Care and Use Committees of the Beth Israel Deaconess Medical Center.
Induction of Colitis. Colitis was induced by feeding mice 5% (wt/v) dextran sodium sulfate (DSS) (MW 40,000; ICN Biomedicals Inc., OH), dissolved in distilled water, for a period of 7 days. The resulting condition was termed “DSS-colitis.” Control animals were fed distilled water ad libitum. The mortality rate in the control group and the CO-treated group was 10% (2/20) and 14% (2/14), respectively. These animals were excluded from the statistical analysis. In the other groups, no mortality occurred during 7 days of 5% DSS treatment.
Experimental Reagents and Treatment Protocol. Cobalt protoporphyrin (CoPPIX), zinc protoporphyrin (ZnPPIX, Porphyrin Products, Logan, Utah) and biliverdin dihydrochloride (ICN Biomedicals Inc., OH) were dissolved in a small amount 0.2 M NaOH, subsequently adjusted to a pH of 7.4 with 1 M HCl, and diluted in 0.9% NaCl. The stock solutions (CoPPIX and ZnPPIX=1 mg/ml, biliverdin=10 mM) were aliquoted and kept at −70° C. until used. Light exposure was limited as much as possible. CoPPIX (5 mg/kg), ZnPPIX (20 mg/kg) and biliverdin (50 μmol/kg) were administered to the mice intraperitoneally (i.p.) 24 hours before induction of DSS-colitis and daily thereafter. Desferoxamine (DFO) was prepared in imidazole buffer (50 mM imidazole, 220 mM NaCl, pH 7.4). DFO was injected subcutaneously (s.c.) twice daily (125 mg/kg) or infused i.p. (130 mg/kg/day; pumping rate 0.5 μl/hour for 8 days) by miniosmotic Alzet™ pumps (Alza Corporation, Palo Alto, Calif.) (Postma et al., Exp. Parasitol. 89(3):323-30 1998). The pumps were installed i.p. 24 hours before induction of colitis. When animals were sacrificed at day 7 of DSS treatment, the pumps were removed and evaluated to determine if DFO application had taken place.
CO gas was administrated exogenously by putting animals in a CO exposure chamber (Otterbein et al., Nat. Med. 6(4):422-8, 2000). Briefly, CO at a concentration of 1% (10,000 parts per million (ppm)) in compressed air was mixed with balanced air (21% oxygen) in a stainless steel mixing cylinder before entering the exposure chamber. CO concentrations were controlled by varying the flow rates of CO in a mixing cylinder before delivery to the chamber. Because the flow rate is primarily determined by the O2 flow, only the CO flow was changed to deliver the final concentration to the exposure chamber. A CO analyzer (Interscan Corporation, Chatsworth, Calif.) was used to measure CO levels continuously in the chamber. Mice were placed in the chamber 24 hours before the induction of the colitis and were kept in the exposure chamber during the whole period of the experiment (total of 8 days). […] Animals were removed daily from the chamber to assess weight and stool.
Evaluation of Symptoms of Colitis. All animals were evaluated clinically on a daily basis. The evaluation of each animal included a measurement of weight, hemoccult positivity and examination of stool for the presence of gross blood and stool consistency. The disease activity index (DAI) was calculated by scoring percent weight loss, intestinal bleeding (no blood; occult blood=hemoccult+; gross blood) and stool consistency (normal stool=well-formed pellets; loose stool=pasty and semiformed stools; diarrhea=liquid stool that stuck to the anus) (Table 1).
The animals were sacrificed, and the whole colon from the colo-cecal junction to the anal verge was removed and gently cleaned of stool. […]

IL-6 = test: Real time RT-PCR of graft muscularis after SITx, IL-6; type: in vivo, LEW rats; details: figure legend 23A-23D, graft muscularis 4 hours after transplantation
Procedure: Small Intestinal Transplantation. Orthotopic small intestinal transplantation (SITx) was performed in syngeneic Lewis rats. SITx with caval drainage was performed using a previously described procedure (Murase et al., in Handbook of Animal Models in Transplantation Research, Cramer et al., Eds. CRC Press, Boca Raton, Fla., pp. 203-213 (1994)). […] The graft was perfused via the aortic segment with 5 ml chilled Ringer's lactate solution, and the intestinal lumen was irrigated with 20 ml of cold saline solution containing 0.5% neomycin-sulfate (Sigma, St. Louis, Mo.). End-to-side anastomoses between the graft aorta and the recipient infrarenal aorta, and between the graft portal vein and recipient vena cava, were performed with 10-0 Novafil™ suture. The cold ischemic time was 1 hour. The entire recipient intestine was removed and the enteric continuity was restored by proximal and distal end-to-end intestinal anastomoses. Recipient animals were given 20 mg/day prophylactic cefamandole nafate for 3 postoperative days. Transplanted recipients were given water 3 hours after surgery, and were fed 24 hours after surgery.
(§1) SYBR green real time RT-PCR. The effects of administration of biliverdin on transplant-induced pro-inflammatory and anti-inflammatory gene expression were assessed in muscularis extracts by RT-PCR Biliverdin ([…], i.p.) was administered to both the donor and recipient three hours preoperatively. The muscularis externae was collected from normal intestine and transplanted grafts 4 hours postoperatively and snap frozen in liquid nitrogen. […] Equal aliquots (5 μg) of total RNA from each sample were quantified by spectrophotometry (wavelength […]) and aliquoted at a concentration of 40 ng/μl. Peak mRNA expression was quantified in duplicate by SYBR Green two-step, real-time RT-PCR. […] Real-time PCR data were plotted as the ΔRn fluorescence signal versus the cycle number. […] Quantification of mRNA expression was normalized to GAPDH and calculated relative to control using the comparative CT method (Schmittgen et al., J. Biochem. Biophys. Methods 46(1-2):69-8, 2000). […]

IL-1β = test: Real time RT-PCR of graft muscularis after SITx, IL-1β; type: in vivo, LEW rats; details: figure legend 23A-23D, graft muscularis 4 hours after transplantation
Procedure: Small Intestinal Transplantation. Orthotopic small intestinal transplantation (SITx) was performed in syngeneic Lewis rats. SITx with caval drainage was performed using a previously described procedure (Murase et al., in Handbook of Animal Models in Transplantation Research, Cramer et al., Eds. CRC Press, Boca Raton, Fla., pp. 203-213 (1994)). […] The graft was perfused via the aortic segment with 5 ml chilled Ringer's lactate solution, and the intestinal lumen was irrigated with 20 ml of cold saline solution containing 0.5% neomycin-sulfate (Sigma, St. Louis, Mo.). […]
as §1, with “preoperatively.” for “preoperatively. The muscularis externae was collected from normal intestine and transplanted grafts 4 hours postoperatively and snap frozen in liquid nitrogen.”

## [C-]#[O+] [CO, carbon monoxide]
DSS-colitis; 7 days of 5% DSS, CO exposure chamber 250-400 ppm
  mortality rate: 14%
DSS-colitis; continuous exposure to 200-400 ppm CO, compared to the control
  effect on DSS-colitis (weight loss, DAI): did not have an effect
IL-6
  mean expression of IL-6 mRNA: significantly reduced
IL-1β
  mean expression of IL-1b mRNA: significantly reduced
